One may read the IC50 as the concentration that inhibits the measured activity by half.

This assay has as its target one or more of HDAC-1, HDAC-2, HDAC-3, HDAC-4, HDAC-5, HDAC-6, HDAC-7, HDAC-8, HDAC-9, HDAC-10 and HDAC-11. Put plainly: Inhibition of Histone Deacetylase Enzymatic Activity (Boc-Lys(Ac)-AMC substrate, Fluor-de-Lys developer). It is filed as biochemical. Conditions: read-out: HDAC Inhibition (IC50 μM) HDAC Enzyme. On the procedure: The following protocol is used to assay the compounds of the disclosure.
The mixture is pre-incubated for 5 minutes at room temperature. The reaction is started by bringing the temperature to 37° C. and adding 16 μl substrate. Total reaction volume is 50 μl.
In the Tables 8, 9 and 10, A≦0.05 μM; 0.05 μM<B≦0.1 μM; 0.1 μM<C≦1 μM; and 1 μM<D≦10 μM.

Like-named read-outs stand apart in the source and are kept apart here. Some results are limits rather than exact numbers.

On to `O=C(NO)c1ccc(OCCN2C(=O)c3ccccc3Oc3ccccc32)cc1Cl`, for which the IC50 (Table 10) lay within 1 to 10 µM.

On to `O=C(NO)c1ccc(OCCN2C(=O)c3ccccc3Oc3ccccc32)cc1F`, for which the IC50 (Table 10) lay within 0.05 to 0.1 µM.

Turning to `O=C(C=C1c2ccccc2C=Cc2ccccc21)NO`, for the setting “Table 10”, the IC50 fell in the range of 0.1 to 1 µM.

Take `O=C(C=C1c2ccccc2CCc2ccccc21)NO`: the IC50 (Table 10) is 1 to 10 µM.

On to `O=C(NO)c1cnc(NC2c3ccccc3CCc3ccccc32)nc1`, for which, under “Table 10”, the IC50 is less than 0.05 µM.

Turning to `O=C(NO)c1cn2c(n1)sc1ccccc12`, where the note is “Table 10”, the IC50 is 0.1 to 1 µM.

Turning to `O=C(NO)c1ccc(COC2c3ccccc3CCc3ccccc32)cc1`, the IC50 (Table 10) is 0.1 to 1 µM.

Take `O=C(NO)c1cccc(COC2c3ccccc3CCc3ccccc32)c1`: the IC50 (Table 10) is 0.1 to 1 µM.

On to `O=C(NO)c1cccc(CNC2c3ccccc3CCc3ccccc32)c1`, for which the IC50 (Table 10) is 0.1 to 1 µM.

Regarding `O=C(NO)c1cnc(N2C[C@H]3C[C@@]3(c3cccc(C(F)(F)F)c3)C2)nc1`, the concentration for half-maximal inhibition (IC50) (Table 10) lay within 0.1 to 1 µM.

Consider `O=C(NO)c1cnc(N2C[C@H]3C[C@@]3(c3ccc(C(F)(F)F)cc3)C2)nc1`, for which the IC50 (Table 10) fell in the range of 0.1 to 1 µM.

With `CN1CCN(C2=Nc3cc(C(=O)NO)ccc3Oc3ccccc32)CC1`, for the setting “Table 8”, the IC50 was in the range of 0.1 to 1 µM.

In the case of `O=C(NO)c1cnc(N2C[C@H]3C[C@@]3(c3ccc(Cl)c(Cl)c3)C2)nc1` [2-((1R,5S)-1-(3,4-dichlorophenyl)-3-azabicyclo[3.1.0]hexan-3-yl)-N-hydroxypyrimidine-5-carboxamide], the IC50 (Table 10) lay within 0.1 to 1 µM.

Regarding `O=C(NO)c1cnc(N2C[C@@H]3C[C@]3(c3ccc(Cl)c(Cl)c3)C2)nc1` [2-((1S,5R)-1-(3,4-dichlorophenyl)-3-azabicyclo[3.1.0]hexan-3-yl)-N-hydroxypyrimidine-5-carboxamide], the half-inhibitory concentration (IC50) (Table 10) was in the range of 0.1 to 1 µM.

Turning to `O=C(NO)c1cnc(NC(c2ccc(F)cc2)c2ccc(F)cc2)nc1` [2-(bis(4-fluorophenyl)methylamino)-N-hydroxypyrimidine-5-carboxamide], the IC50 (Table 10) is less than 0.05 µM.

As for `O=C(NO)c1cccc(CN2c3ccccc3Sc3ccccc32)c1` [3-((10H-phenothiazin-10-yl)methyl)-N-hydroxybenzamide], the IC50 (Table 10) lay in the range of 0.1 to 1 µM.

In the case of `O=C(NO)c1cccc(CN2c3ccccc3Oc3ccccc32)c1` [3-((10H-phenoxazin-10-yl)methyl)-N-hydroxybenzamide], the IC50 (Table 10) was in the range of 1 to 10 µM.

With `O=C(NO)c1cccc(CN(c2ccccc2)c2ccccc2)c1` [3-((diphenylamino)methyl)-N-hydroxybenzamide], the IC50 (Table 10) lay within 1 to 10 µM.

Take `O=C(CCCN1C(=O)c2cccnc2N(C2CC2)c2ccccc21)NO` [4-(11-cyclopropyl-5-oxo-5H-benzo[b]pyrido[2,3-e][1,4]diazepin-6(11H)-yl)-N-hydroxybutanamide]: under “Table 10”, the IC50 was in the range of 1 to 10 µM.

As for `O=C(NO)c1ccc(Cn2c3c(c4ccccc42)CCCCCC3)cc1` [4-((6,7,8,9,10,11-hexahydro-5H-cycloocta[b]indol-5-yl)methyl)-N-hydroxybenzamide], the IC50 (Table 10) fell in the range of 0.1 to 1 µM.

For the compound `O=C(NO)c1ccc(CNC2c3ccccc3COc3ccccc32)cc1` (stereo not shown) [4-((6,11-dihydrodibenzo[b,e]oxepin-11-ylamino)methyl)-N-hydroxybenzamide], the half-maximal inhibitory concentration (IC50) (Table 10) lay in the range of 0.1 to 1 µM.

For the compound `O=C(NO)c1ccc(CN2c3ccccc3CCc3ccccc32)cc1` [4-((10,11-dihydro-5H-dibenzo[b,f]azepin-5-yl)methyl)-N-hydroxybenzamide], under “Table 10”, the IC50 is less than 0.05 µM.

Regarding `O=C(NO)c1ccc(CNC(c2ccccc2)c2ccccc2)cc1` [4-((benzhydrylamino)methyl)-N-hydroxybenzamide], the IC50 (Table 10) is less than 0.05 µM.

Regarding `O=C(NO)c1ccc(CN(c2ccccc2)c2ccccc2)cc1` [4-((diphenylamino)methyl)-N-hydroxybenzamide], the IC50 (Table 10) was 0.1 to 1 µM.

Consider `O=C(NO)c1ccc(CN2Cc3ccccc3Oc3ccccc32)cc1` [4-(dibenzo[b,f][1,4]oxazepin-10(11H)-ylmethyl)-N-hydroxybenzamide], for which the IC50 (Table 10) was less than 0.05 µM.

In the case of `O=C(NO)c1cnc(N2CCC[C@H]2c2nc3ccccc3[nH]2)nc1` [(S)-2-(2-(1H-benzo[d]imidazol-2-yl)pyrrolidin-1-yl)-N-hydroxypyrimidine-5-carboxamide], the IC50 (Table 10) was in the range of 0.1 to 1 µM.

`O=C(CN1c2ccccc2C=Cc2ccccc21)NO` [(Z)-2-(5H-dibenzo[b,f]azepin-5-yl)-N-hydroxyacetamide]: the IC50 (Table 10) fell in the range of 1 to 10 µM.

With `O=C(NO)c1cccc(CN2c3ccccc3C=Cc3ccccc32)c1` [(Z)-3-((5H-dibenzo[b,f]azepin-5-yl)methyl)-N-hydroxybenzamide], the IC50 (Table 10) is 0.1 to 1 µM.

Consider `CN(O)C(=O)c1ccc(C2=Nc3ccccc3N(C3CC3)c3ccccc32)cc1` [(Z)-4-(5-cyclopropyl-5H-dibenzo[b,e][1,4]diazepin-11-yl)-N-hydroxy-N-methylbenzamide], for which, where the note is “Table 8”, the IC50 is 1 to 10 µM.

For the compound `O=C1CN=C(c2ccc(C(=O)NO)cc2)c2cc(Br)sc2N1` [(Z)-4-(7-bromo-2-oxo-2,3-dihydro-1H-thieno[2,3-e][1,4]diazepin-5-yl)-N-hydroxybenzamide], the IC50 (Table 10) lay in the range of 0.1 to 1 µM.

Consider `O=C(NO)c1ccc(C2=Nc3ccccc3N(CC3CC3)c3ncccc32)cc1` [(Z)-4-(11-(cyclopropylmethyl)-11H-benzo[b]pyrido[2,3-e][1,4]diazepin-5-yl)-N-hydroxybenzamide], for which, for the setting “Table 8”, the IC50 was in the range of 1 to 10 µM.

Take `O=C(NO)c1ccc(C2=Nc3ccccc3Sc3ccccc32)cc1` [(Z)-4-(dibenzo[b,f][1,4]thiazepin-11-yl)-N-hydroxybenzamide]: the IC50 (Table 8) lay within 0.1 to 1 µM.

Turning to `O=C(NO)c1ccc(C2=Nc3ccccc3N(CCN3CCOCC3)c3ccccc32)cc1` [(Z)-N-hydroxy-4-(5-(2-morpholinoethyl)-5H-dibenzo[b,e][1,4]diazepin-11-yl)benzamide], the IC50 (Table 8) was 0.1 to 1 µM.

Regarding `O=C(NO)c1ccc2c(c1)N=C(c1ccncc1)c1ccccc1O2` [(Z)-N-hydroxy-11-(pyridin-4-yl)dibenzo[b,f][1,4]oxazepine-8-carboxamide], the IC50 (Table 8) fell in the range of 0.1 to 1 µM.

With `O=C(NO)c1cnc(N2C[C@H]3C[C@@]3(c3ccccc3)C2)nc1` [N-hydroxy-2-((1R,5S)-1-phenyl-3-azabicyclo[3.1.0]hexan-3-yl)pyrimidine-5-carboxamide], the IC50 (Table 10) is 0.1 to 1 µM.

For the compound `CN1CCc2[nH]c3ccc(C(=O)NO)cc3c2C1` [N-hydroxy-2-methyl-2,3,4,5-tetrahydro-1H-pyrido[4,3-b]indole-8-carboxamide], the IC50 (Table 10) lay within 1 to 10 µM.

Regarding `O=C(NO)c1ccc(Cn2c(-c3ccccc3)cc3ccccc32)cc1` [N-hydroxy-4-((2-phenyl-1H-indol-1-yl)methyl)benzamide], under “Table 10”, the IC50 fell in the range of 0.1 to 1 µM.

For the compound `O=C(NO)c1cc2c(cn1)[nH]c1ccccc12` [N-hydroxy-9H-pyrido[3,4-b]indole-3-carboxamide], the IC50 (Table 10) was in the range of 1 to 10 µM.

As to `O=CN(O)CCCCCCN1C(=O)c2ccccc2Oc2ccccc21` [N-hydroxy-N-(6-(11-oxodibenzo[b,f][1,4]oxazepin-10(11H)-yl)hexyl)formamide], where the note is “Table 10”, the IC50 is less than 0.05 µM.

Consider “(Z)-N-(5H-dibenzo[b,f]azepin-5-yl)methyl)benzyl)-N-hydroxyformamide”, for which the IC50 (Table 10) fell in the range of 0.1 to 1 µM.

Source of the values: US20170000749A1, “Methods for Treating Cognitive Disorders Using Inhibitors of Histone Deacetylase” (Forum Pharmaceuticals, Inc., priority 2008, published 2017).
